Assays:
cancer cell DNA = assay: UV absorbance at 260 nm (hypochromicity, DNA chain contraction), cancer cell DNA; settings: 20 μg DNA in 1 ml Tris-HCl pH 7.3, room temperature, FIGS. 5a, 5b
From the text: (§1) Naringin prepared in accordance with Example 1, and a commercial sample of naringenin prepared by Roth Co. of France, were used for comparison. […] The results are expressed as decrease of UV absorbance (hypochromicity) in the presence of various concentrations of the agent. The hypochromicity corresponds to DNA chain contraction, while hyperchromicity would correspond to DNA chain opening (i.e. the breaking of hydrogen bonds which normally hold the two DNA chains together). The spleen and bone marrow DNAs used in this test were from normal human spleen and bone marrow tissue cells. UV absorbance at wavelength of 260 nm for different DNAs from normal and cancer cells is performed at room temperature. 20 μg (micrograms) of DNA (deoxyribonucleic acid) are dissolved in 1 ml of Tris-HC1 buffer (10^-2 molar, pH adjusted to 7.3, solution made using sterile distilled water). The absorbance is measured before and after addition of either naringin or naringenin. The blank cuvette contains an equivalent amount of naringin or naringenin, but not DNA. The contact between DNA and compound is of about one minute (very slight agitation). The absorbance at 260 nm is then measured. The results are expressed as diminution (%) of UV absorbance.

[1] = system: Terminal deoxynucleotidyl Transferase (TdT); assay: in vitro activity of TdT which contaminates Engerix-vaccine antigen B; assay type: biochemical; settings: TdT which contaminates Engerix-vaccine antigen B (DNA virus antigen), same conditions
Protocol: (§2) For testing the activity of TdT, the incubation medium (0.10 ml final volume) contains: 25 μmoles fresh solution of Tris-HC1 buffer pH 7.70; 2 μmoles MgCl2; (^3 d-NTP (deoxynucleoside-5'-triphosphate, 100,000 CPM). Increasing amounts of Leucocell vaccine (as indicated in FIG. 6) are used. Incubation for 10 minutes at 36° C., then addition of an equal volume of trichloroacetic acid (TCA 5%). Acid-precipitable material is filtered on millipore (Whatman GF/C), washed with 5% TCA then with 95° alcohol. After millipore drying, radioactivity of acid-insoluble material is measured in scintillation spectrometer Packard. The results are expressed as CPM (counts/minute)/sample.
In contrast, the activity of TdT which contaminates Engerix®-vaccine antigen B (Med. Sci. Res. 1987, vol.15 pp. 529-530), an antigen prepared from DNA virus is not inhibited, under the same conditions, by naringin or naringenin. Thus both naringin and naringenin selectively interfere with the proliferation of RNA virus but not DNA virus. However, as RNA from RNA-virus is transcribed into DNA by reverse transcriptase before being integrated into cell genome (potential role of TdT), naringin and naringenin are equally useful agents in treatment of all DNA infections equally.

[2] = system: tobacco mosaic virus (TMV); assay: tobacco mosaic virus multiplication on tobacco leaf (plaque forming units); settings: 20-50 micrograms per milliliter, virus incubated at 30° C. for 30 min.; xanthy tobacco leaf; checked two to three days later; FIG. 7
Protocol: The effect of naringin prepared according to Example 1, of commercial naringin and of commercial naringenin has been tested on tobacco mosaic virus (TMV). In this experiment, viral suspension containing 2 μg of virus/ml of distilled water, was incubated at 30° C. for 30 min. with each of the above compounds (20-50 micrograms per milliliter) and then 20 μl placed on one-half of the leaf ([…] tobacco) while the same concentration of untreated virus was placed on the other half of the same leaf. The appearance of viral disease was checked two to three days later. […] Naringenin or commercial naringin gave similar results.

[3] = system: normal cell DNA (spleen and bone marrow); assay: UV absorbance at 260 nm (hypochromicity, DNA chain contraction), normal cell DNA; settings: normal human spleen and bone marrow DNA, 20 μg in 1 ml Tris-HCl pH 7.3, 260 nm; FIGS. 5a, 5b
From the text: as §1

[4] = system: Terminal deoxynucleotidyl Transferase (TdT); assay: in vitro activity of TdT in cat leucosis vaccine (Leucocell); assay type: biochemical; settings: 10 minutes at 36° C., pH 7.70, FIG. 6
From the text: Both naringin and naringenin inhibit in vitro the activity of Terminal deoxynucleotidyl Transferase (TdT), an enzyme involved in the integration of viral genome into host cell. This enzyme is present in cat leucosis vaccine prepared by genetic engineering (Engerix® Leucocell vaccine), vaccine highly purified. I have previously shown that this enzyme catalyzes the polymerisation of d-TMP and d-CMP originating from d-TTP and d-CTP used respectively as substrates.
as §2

BALB C mice = assay: toxicity by intravenous route in BALB C mice; assay type: in vivo, mouse; settings: for toxic effect: i.v. route, 10% DMSO, BALB C mice; for tolerability: i.v. injection or perfusion, doses from 250-1000 mg/kg (concluded)
From the text: This example illustrates the absence of toxicity of naringin or naringenin injected by intravenous route to BALB C mice.

tumor cells = assay: mice bearing tumor cells treated with naringin and a chemotherapeutic agent; assay type: in vivo, mouse; settings: with 5-fluorouracil, ARA-C, Endoxan, hydroxy-urea; i.p.; FIGS. 9a-9b, 10a-10d
Protocol: (§3) O BALB C mice bearing lymphoma YC8 (ascitic form) and Swiss mice bearing Ehrlich ascitic cells (20-22 grams, Charles River breeding) were distributed at random in sets of 10.
Set III: Mice bearing tumor cells received naringin (JO-1): 0.2 ml/mouse twice/day (for concentrations, see FIGS. 9 and 10), i.p. route and, at the same time these mice received a chemotherapeutic agent (for concentrations, see FIGS. 9 and 10) i.p. route.
(§4) Ascitic tumor cells were taken in sterile medium from mice bearing these cells for 15-20 days. 0.1 ml of ascitic suspension was mixed with 10 ml of buffered solution (pH 7.2) : (NaCl 7.2 g/l; Na2 HPO4 4.3 g/l and KH2 PO4 0.4 g/l).
(§5) The number of cells was determined (by Malassez cell) and cellular suspension diluted in order to get cell number close to 40.000-50.000/ml. 0.1 ml of this suspension was immediately injected by i.p. route to mice in sets I, II and III and by i.m. route to mice in set IV.
Treatment: 48 hours after injection of tumor cells: the mice of set II received (i.p.) JO-1 heated at 37° and filtered on millipore, treatment for five consecutive days; the mice of set III were treated (i.p.) by a mixture of JO-1 and one of the antibiotics for 5 consecutive days; the mice of set I (control) received (i.p.) only isotonic solution for 5 consecutive days; the mice of set IV received (i.m.) JO-1 for 15 consecutive days. […]

[5] = system: DNA from normal monkey brain; assay: in vitro synthesis (replication) of DNA from normal monkey brain; assay type: biochemical; settings: Macaca mulatta brain; FIG. 3
From the text: (§6) […]
(§7) DNAs used were isolated from human cancer and normal tissues furnished by different hospitals as indicated in IRCS Medical Science 14: 809-810, 1986. The normal brain tissue originated from Macaca mulatta.

[6] = biological activity compared with commercial compounds; settings: compared with that exhibited by commercial compounds
human cancer cells = assay: effect on in vitro cultured human cancer cells; assay type: cell-based; settings: various concentrations; ovary cancer and leukemic cells resistant to classical chemotherapy; FIG. 2
Protocol: (§8) Naringin prepared in Example 1 has been used for determining its effect on in vitro cultured human cancer and normal cells, according to the method of Shoermaker R.H. et al., Cancer Research 45: 2145-2153, 1985). Culture medium contained 100 μg of penicillin and streptomycin in order to prevent bacterial contamination.

Ehrlich ascitic cells = assay: mice bearing Ehrlich ascitic cells; assay type: in vivo, Swiss mice; settings: than lymphoma YC8 cells
Protocol: as §3
Set II: Mice bearing tumor cells received JO-1 (= naringin, Example 1): 0.2 ml/mouse, twice/day, i.p. route (for JO-1 concentrations, see Tables 1, 3, and 4, and FIG. 10.)
as §4, §5
Treatment: 48 hours after injection of tumor cells: the mice of set II received (i.p.) JO-1 heated at 37° and filtered on millipore, treatment for five consecutive days; the mice of set III were treated (i.p.) by a mixture of JO-1 and one of the antibiotics for 5 consecutive days; the mice of set I (control) received (i.p.) only isotonic solution for 5 consecutive days; the mice of set IV received (i.m.) JO-1 for 15 consecutive days.
Only the survivors in excellent physical condition were taken into consideration .

[7] = system: DNA from cancerous tissue; assay: in vitro synthesis of tritium-labeled cancer DNA, agent added at different points in time; assay type: biochemical; settings: FIGS. 4a, 4b
From the text: The same test method was used on DNA from cancerous tissue, determining the amount of tritium-labeled DNA synthesized over a period of time and the effect of introducing naringin at different points in time.

[8] = system: DNAs from normal tissues (human bone marrow and spleen); assay: in vitro synthesis (replication) of DNA from normal human tissues; assay type: biochemical; settings: FIG. 3
From the text: as §6, §7

[9] = system: DNAs from different human cancer tissues, i.e. breast, colon and liver cancers; assay: in vitro synthesis (replication) of DNA from human cancer tissues; assay type: biochemical; settings: FIG. 3
From the text: as §6, §7

[10] = system: normal human bone marrow cells; assay: effect on in vitro cultured normal human bone marrow cells; assay type: cell-based; settings: various concentrations; FIG. 2
Protocol: as §8

In the case of O=C1C[C@@H](c2ccc(O)cc2)Oc2cc(O)cc(O)c21 [naringenin], the “contraction of cancer cell DNA chains (hypochromicity)” value (cancer cell DNA) was “contract cancer cell DNA chains”, the “inhibition of in vitro activity of TdT” value [1] was “not inhibited” and the “inhibition of TMV multiplication” value [2] was “inhibits TMV multiplication”. For the same molecule, the “contraction of normal cell DNA chains (hypochromicity)” value [3] was “either no effect or a very slight effect”, the “inhibition of in vitro activity of TdT” value [4] was “inhibit in vitro activity of TdT” and the toxic effect (BALB C mice; 125 mg/kg) was “no toxic effect”. For the same molecule, the toxic effect (BALB C mice; 250 mg/kg) was “no toxic effect”, the toxic effect (BALB C mice; 500 mg/kg) was “no toxic effect” and the tolerability (BALB C mice) was “well tolerated”.
For C[C@@H]1O[C@@H](O[C@H]2[C@H](Oc3cc(O)c4c(c3)O[C@H](c3ccc(O)cc3)CC4=O)O[C@H](CO)[C@@H](O)[C@@H]2O)[C@H](O)[C@H](O)[C@H]1O [naringin], the “contraction of cancer cell DNA chains (hypochromicity)” value (cancer cell DNA) was “contract cancer cell DNA chains”, the “inhibition of in vitro activity of TdT” value [1] was “not inhibited” and the “synergistic action with classical antibiotics” value (tumor cells) was “synergistic action”. For the same molecule, the “effect on in vitro synthesis of DNA from normal monkey brain” value [5] was “practically unaffected”, the biological activity [6] was “better biological activity” and the “inhibition of in vitro cultured human cancer cells” value (human cancer cells) was “strongly inhibits”. For the same molecule, the “sensitivity of Ehrlich ascitic cells to naringin compared with lymphoma YC8 cells” value (Ehrlich ascitic cells) was “less sensitive”, the “inhibition of TMV multiplication” value [2] was “inhibits TMV multiplication” and the “effect on DNA chain elongation” value ([7]; added after the reaction starts) was “stops DNA chain elongation”. The “effect on DNA initiation” value ([7]; given at zero time of incubation) was “acts on DNA initiation sites”, the “effect on in vitro synthesis of DNAs from normal human tissues” value [8] was “practically unaffected” and the “contraction of normal cell DNA chains (hypochromicity)” value [3] was “either no effect or a very slight effect”. The “inhibition of in vitro activity of TdT” value [4] was “inhibit in vitro activity of TdT”, the “inhibition of in vitro synthesis of DNAs from human cancer tissues” value [9] was “strongly inhibits” and the toxic effect (BALB C mice; 125 mg/kg) was “no toxic effect”. The toxic effect (BALB C mice; 250 mg/kg) was “no toxic effect”, the toxic effect (BALB C mice; 500 mg/kg) was “no toxic effect” and the tolerability (BALB C mice) was “well tolerated”. The “effect on in vitro cultured normal human bone marrow cells” value [10] was “little effect”.
